The text below walks through data of patent publication US11090305B2, “Methods and compositions to reduce oxidative stress” (University of Massachusetts, priority 2009, dated 2021).

For experiment [1], the system named is db/db MSC. The experiment in a line: Basal protein expression in db/db MSC (western blot). It is filed as cell-based, mouse. (In general: A western blot detects proteins with antibodies after separation by electrophoresis.)
A further experiment has as its system ApoE^−/−-derived HSCs. The experiment in a line: HSC transplantation into lethally irradiated WT recipients. As to conditions: 12 weeks after transplant; ApoE^−/− donors pretreated 4 weeks. In kind it is in vivo, mouse.
The subject of experiment [2] is bone marrow mononuclear cell population. The experiment in a line: Lymphocyte lineage specification: pre-B and pro-T cells in bone marrow. More on the design: species or system mouse. As to conditions: ApoE^−/− mice, in vivo treatment. As to the method: (§1) Cells were stained with monoclonal antibodies conjugated to various fluoroprobes. These antibodies included: Notch1, cKit (2B8), Sca-1 (E13-161.7), CD4 (L3T4), CD8 (53-6.72), CD90.1, CD25, CD44, TCRβ, NK1.1, γδTCR, CD45.1, CD45.2. The lineage cocktail consisted of CD4, CD8, B220 (RA3-6B2), TER-119, Mac-1 (MI/70), and Gr-1 (RB6-8C5). All antibodies were purchased from BD Bioscience (San Diego, Calif.). FACS analysis was carried out on a FACS Diva.
Hypercholesterolemia is associated with lymphocytosis, while induction of hypercholesterolemia in monkeys affects the rate of CD11b monocyte differentiation. […] FIGS. 46A-46C show lymphocyte lineage specification is altered in hypercholesterolemic mice. (A) The percentages of pre-B cells and pro-T cells in the bone marrow mononuclear cell population were lower and higher, respectively, in ApoE^−/− than in WT mice. These changes were reversed by in vivo treatment of ApoE mice with NAC. (B) The percentages of pre-B cells and pro-T cells in the bone marrow mononuclear cell population were lower and higher, respectively, in HCD than in WT mice. (C) The percentage of mature B cells was lower and that of mature T cells higher in the peripheral blood mononuclear cell population from ApoE mice than from WT mice. The percentage of NKT cells was also less in ApoE mice.

For experiment [3], the system named is db/db MSC. The experiment can be described thus: Response of db/db MSC to adipogenic medium (Oil Red O staining). It is filed as cell-based, mouse. As to the method:
Adipocytes were identified by Oil Red O staining. m±sd, n=5, *p<0.05.
Adipocytes were identified by Oil Red O staining. m±sd, n=4, *p<0.05 vs control. […] Endothelial cells were identified by CD31 staining. m±sd, n=4, *p<0.05 vs control, #p<0.05 vs 5 nM.

Experiment [4] concerns db/db MSC. The experiment can be described thus: Oxidative/nitrative stress in db/db MSC (DCF-DA staining, nitrotyrosine). In kind it is cell-based, mouse. As to conditions: db/db MSC in vitro. The source says:
Data are expressed as % positive DCF-DA cells/hpf. m±sd, n=5, *p<0.05. […] The db/db MSC expressed a greater oxidative/nitrative stress than WT MSC. […] In summary, in vitro, db/db MSC show greater oxidative nitrostive stress than WT MSCs and this phenotype can be reversed by N-acetylcysteine (NAC).

Experiment [5] relates to p19^Arf, p21^Waf1, and p27^Kip1. The experiment in a line: RT-PCR expression of p19^Arf, p21^Waf1, p27^Kip1 in HSCs. As to conditions: ApoE^−/− mice, in vivo treatment. It is filed as in vivo, mouse. As for the experimental part:
The expression of p15^Ink4b, p16^Ink4a, p18^Ink4c, p19^ARF, P21^Waf1, and p27^Kip1 was determined using RT-PCR, a more sensitive and quantitative assay, in ApoE^−/− and WT HSCs.

Another experiment deals with Notch1. The experiment can be described thus: Notch1 expression in HSCs, early T progenitor cells and thymocytes (Example 6). It is filed as in vivo, mouse. As to conditions: hypercholesterolemic mice, 4 weeks. As for the experimental part:
as §1
The Notch signaling pathways are expressed extensively in the hematopoietic system. Notch signaling dominates the regulation of proliferation, self-renewal, and lineage commitment of HSCs in the bone marrow as well as their downstream differentiation and maturation in the thymus (23-28). Moreover, Notch1 appears to participate in the differentiation of the unique T cell subsets, NKT cells and γδT cells (29-32). In this context, the mechanistic basis between HSC oxidant stress and aberrant lineage specification toward NKT and γδT cells in hypercholesterolemic mice was evaluated by determining Notch expression in HSC, bone marrow T cell progenitors, and immature thymocytes. […] Notch1 expression was evaluated in HSCs, early T progenitor cells, and thymocytes differs between ApoE^−/− and WT mice. […] Notch1 expression also was evaluated in HSCs, early T progenitor cells, and thymocytes differs between HCD and WT mice. […]

In another experiment the test system is HSCs. The experiment in a line: Competitive HSC transplantation, bone marrow repopulation. As to conditions: ApoE^−/− donor mice treated before HSC harvest (NAC 4 weeks; SB203580, PD98059 2 weeks). In kind it is in vivo, mouse. As to the method:
HSC were purified from freshly harvested bone marrow mononuclear cells as c-Kit^+Sca-1^+CD90.1^lowLin^− by FACS sorting. Recipient mice were C57BL/6 (WT) on standard chow. Recipients underwent lethal irradiation (1100 Rads delivered in 2 doses 3 hr apart). Immediately after the 2nd irradiation, recipients were anesthetized (2% isoflurane) and 10^6 HSC/0.1 ml sterile PBS were transplanted via retro-orbital injection. Mice were followed for 12 weeks before study or administration of AOM.
The functional consequence of this loss of quiescence by competitive transplantation was investigated next, insofar as the presence of quiescent HSC are critical for successful bone marrow reconstitution. HSCs from CD45.2 ApoE^−/− or HCD mice were mixed 1:1 with CD45.1 WT HSCs and then transplanted into lethally irradiated CD45.1 WT recipients.
Activation of p38 MAPK reduces HSC quiescence in Atm^−/− mice. To evaluate this phenomena in hypercholesterolemic mice, ApoE^−/− and WT mice were treated with the selective p38 MAPK inhibitor SB203580 or the MEK 1 inhibitor PD98059 for 2 weeks prior to harvest of HSCs for transplant. CD45.2 ApoE^−/− or WT HSCs with mixed 1:1 with CD45.1 WT HSCs and transplanted into lethally irradiated CD45.1 recipient mice.

Text for ApoE^−/−-derived HSCs: It was next determined the oxidant status of HSCs transplanted into WT mice. To this end, lethally irradiated WT mice were transplanted with HSCs from WT or ApoE^−/− mice, or with HSCs harvested from ApoE^−/− mice pretreated with NAC for 4 weeks. […] Numbers in each representative FACS analysis are the m±sd for that group; n=5; *p<0.05 vs. WT→WT group; †p<0.05 for ApoE+NAC→WT vs. Apoe→WT.

As to `CC(=O)N[C@@H](CS)C(=O)O` [NAC, N-acetylcysteine], in the experiment with db/db MSC [1], the eNOS expression entry is given as “no change in eNOS expression” and the phospho-eNOS expression entry is “increased phospho-eNOS expression”. The PPARγ expression result in the experiment with db/db MSC [1] (basal) was “reduced basal PPARγ expression”. Further, the “percentage of γδT cells in peripheral blood and NKT cells in thymus and peripheral blood of WT recipients” value in the experiment with ApoE^−/−-derived HSCs is on record as “significantly less in WT recipients transplanted with ApoE^−/−-derived HSCs than WT mice transplanted with WT HSCs, or HSCs harvested from NAC-pretreated ApoE^−/− donor mice”. Moreover, in experiment [2], the “percentages of pre-B cells and pro-T cells in bone marrow” value was “reversed these effects”. Moreover, in the experiment on db/db MSC [3], the differentiation towards adipocytes entry is “reduced adipogenesis”. In the experiment with db/db MSC [4], the “oxidative/nitrative stress (DCF-DA staining, nitrotyrosine accumulation)” value is given as “significantly reduced the presence of oxidative/nitrative stress”. For the same molecule, the “HSC expression of p19^Arf, p21^Waf1, and p27^Kip1” value in experiment [5] is “fully reversed these increases”. Also, the “differences in Notch1 expression in HSCs, T progenitor cells and thymocytes” value in the experiment with Notch1 was “significantly reversed by in vivo treatment with NAC for 4 weeks”. Also, in the experiment on HSCs, the “percentage of CD45.2^+ bone marrow mononuclear cells 12 weeks after competitive transplantation” value is given as “significantly increased the percentage of CD45.2^+ mononuclear cells in recipient bone marrow”.
